Where two headings read alike, the source gives them in different places.
Experiments:
[1] = Stokes shift of MH dyes (FIG. 4); assay type: physicochemical
Text: Unlike Fluorescein and other commercially available dyes whose peak excitation and emission wavelengths are extremely close the MH dyes have ˜200 nm between peaks.

[2] = Fluorescence excitation and emission spectra of the dyes in buffer (Fluorolog-3 spectrometer); assay type: physicochemical; design: key to Excitation max. / Emission max.: peak wavelengths in nm
Text: The fluorescence of the exemplary fluorescent dyes in buffer was examined on a Fluorolog®-3 (a trademark of Spex Industries Inc.) spectrometer. The fluorescent dyes of the present invention have large Stokes shifts; the excitation and emission maxima are close to or greater than 100 nm apart. Peak wavelengths are tabulated in Table 2 along with two commercially available fluorescent dyes, TOTO-1TM and YO-[…]TM (trademarks of Molecular Probes, Inc.). The Stokes shifts of TOTO-1TM and YO-[…]TM are small in comparison to the dyes of the present invention.

dsDNA (20 mer) = experiment: Emission intensity of dye with equimolar dsDNA relative to free dye (fluorescence spectrometer); conditions: for direction of change in emission intensity upon addition of DNA / effect of ssDNA and dsDNA on dye emission: FIG. 2; for Free dye rel. to dsDNA: equimolar dsDNA (20 mer), emission intensity ratio
Text: (§1) FIG. 2 illustrates the effect of ssDNA and dsDNA on dye emission. […] All the dyes reported here show a larger change in emission intensity upon the addition of dsDNA than they do upon the addition of ssDNA; in some cases (GA, 95) this change is positive, in others it is negative (HE, HE-HE, FI).
Emission intensities of the fluorescent dyes of the present invention and TOTO-1™ at 1×10^−5 M in 1×PCR buffer were compared in the absence of DNA (free dye emission) and in the presence of equimolar dsDNA or ssDNA (20 mer) on the fluorescence spectrometer. […]

ssDNA (20 mer) = experiment: Emission intensity of dye with equimolar ssDNA relative to free dye (fluorescence spectrometer); conditions: dye 1×10^−5 M in 1×PCR buffer; for Free dye rel. to ssDNA: equimolar ssDNA (20 mer), emission intensity ratio; for change of the emission intensity in the presence of ssDNA: equimolar ssDNA
Text: as §1
Emission intensities of the fluorescent dyes of the present invention and TOTO-1™ at 1×10^−5 M in 1×PCR buffer were compared in the absence of DNA (free dye emission) and in the presence of equimolar dsDNA or ssDNA (20 mer) on the fluorescence spectrometer.
The fluorescent dyes of the present invention have a large Stokes shift allowing the use of less sophisticated equipment for the detection of the emission intensity.

dsDNA [3] = experiment: Titration of dyes with dsDNA in 96-well microplate (sensitivity and dynamic range, SpectraMax Gemini plate reader)
Procedure: The fluorescent dyes shown in Table 5 were titrated with dsDNA in order to determine the sensitivity (lowest detection limit) and dynamic range. A 96-well polystyrene Corning Costar® (a trademark of Corning Incorporated) microwell plate was loaded with 100 μL/well of dye mixed with various levels of dsDNA and incubated at room temperature for 2 hours allowing the mixture to equillibrate. The dye fluorescence was then measured on a SpectraMax® (a trademark of Molecular Devices Corp.) Gemini Plate-reader. Relative fluorescence units (RFU) were then plotted against DNA concentration in pg/μL.

dsDNA [4] = experiment: ssDNA/dsDNA selectivity in the plate reader assay (FIG. 3)
Text: FIG. 3 illustrates the ssDNA/dsDNA selectivity of the fluorescent dyes of the present invention, HE-HE and 95, versus the commercially available fluorescent dye TOTO-1™ in the plate reader assay. […] By learning more about the binding modes of the disclosed dyes, it should be possible to design and synthesize members of the family optimized for dsDNA detection.

[5] = commercial dye data from Molecular Probes catalog; cited from earlier work
[6] = system: double-stranded DNA (dsDNA); conditions: on a microplate reader; cited from earlier work
[7] = dye 1×10^−5 M in 1×PCR buffer, equimolar dsDNA

Emission max. [2] | Excitation max. [2] | Stokes shift [2] | SMILES | direction of change in emission intensity upon addition of DNA (dsDNA (20 mer)) | Free dye rel. to dsDNA (dsDNA (20 mer); dye 1×10^−5 M in 1×PCR buffer) | Free dye rel. to ssDNA (ssDNA (20 mer)) | ssDNA/dsDNA selectivity (dsDNA [4]) | other results
616 | 400 | 216 nm | C[n+]1c(/C=C/c2ccc(OCCOCCOCCOc3ccc(/C=C/c4sc5ccccc5[n+]4C)cc3)cc2)sc2ccccc21 [HE-HE] | negative | 13.5 | 1.19 | only slightly more sensitive towards dsDNA than ssDNA | effect of ssDNA and dsDNA on dye emission (dsDNA (20 mer)): most pronounced; change of the emission intensity in the presence of dsDNA (dsDNA (20 mer); [7]): 13.5 times; dynamic range compared with TOTO-1™ (dsDNA [3]): greater dynamic range; sensitivity compared with TOTO-1™ (dsDNA [3]): more sensitive
546 | 382 | 164 nm | C[n+]1c(/C=C/c2ccc(SCCO)cc2)sc2ccccc21 [FI] | negative | 28.7 | 0.98 | – | effect of ssDNA and dsDNA on dye emission (dsDNA (20 mer)): most pronounced; change of the emission intensity in the presence of dsDNA (dsDNA (20 mer); [7]): 28.7 times; change of the emission intensity in the presence of ssDNA (ssDNA (20 mer)): very little change
585 | 500 | 85 nm | C[n+]1c(/C=C/c2ccc(N(CCO)CCO)cc2)sc2ccccc21 [Dye 95] | positive | – | – | significant preference for dsDNA | dynamic range compared with TOTO-1™ (dsDNA [3]): larger dynamic range; sensitivity compared with TOTO-1™ (dsDNA [3]): comparable
500 | 385 | 115 nm | COc1ccc(/C=C/c2sc3ccccc3[n+]2C)cc1 [HE] | negative | – | – | – | –
587 | 512 | 75 nm | CN(CCO)c1ccc(/C=C/c2sc3ccccc3[n+]2C)cc1 [GA] | positive | – | – | – | –

The next lines start with the compound.

SMILES | Emission max. [2] | Excitation max. [2] | Stokes shift [2] | direction of change in emission intensity upon addition of DNA (dsDNA (20 mer)) | Free dye rel. to dsDNA (dsDNA (20 mer); dye 1×10^−5 M in 1×PCR buffer) | Free dye rel. to ssDNA (ssDNA (20 mer)) | ssDNA/dsDNA selectivity (dsDNA [4]) | other results
O=C([O-])c1ccc(-c2ccc(/C=C/c3ccc(N(CCO)CCO)cc3)s2)s1.[Na+] [MH3] | – | – | – | – | – | – | – | Stokes shift (between peak excitation and emission wavelengths) [1]: ~200 nm
CN(C)c1ccc(/C=C/c2ccc(C(=O)[O-])s2)cc1.[Li+] [MH1] | – | – | – | – | – | – | – | Stokes shift (between peak excitation and emission wavelengths) [1]: ~200 nm
CN1C(=CC=Cc2cc[n+](CCC[N+](C)(C)C)c3ccccc23)Oc2ccccc21.[I-].[I-] [YO-PRO-3 ™] | – | – | – | – | – | – | – | Emission max. [5]: 631; Excitation max. [5]: 612; Stokes shift [5]: 19 nm
CN1/C(=C/c2cc[n+](CCC[N+](C)(C)CCC[N+](C)(C)CCC[n+]3ccc(/C=C4\Sc5ccccc5N4C)c4ccccc43)c3ccccc23)Sc2ccccc21.[I-].[I-].[I-].[I-] [TOTO-1™, reference compound] | – | – | – | – | 0.003 | 0.95 | superior selectivity | change of the emission intensity upon interaction with dsDNA (dsDNA (20 mer); [7]): ~3 orders of magnitude; change of the emission intensity in the presence of ssDNA (ssDNA (20 mer)): very little change; Emission max. [5]: 533; Excitation max. [5]: 514; Stokes shift [5]: 19 nm
CN(C)CCCN(CCCN(C)C)c1cc(C=C2Sc3ccccc3N2C)c2ccccc2[n+]1-c1ccccc1 [PicoGreen™] | – | – | – | – | – | – | – | dynamic range [6]: ~3 orders of magnitude; sensitivity for double-stranded DNA (dsDNA) [6]: 250 pg/mL

Source: patent publication US7781187B2, “Fluorescent dyes” (Corning Incorporated, priority 2005, dated 2010)
